Measurements taken from patent publication US20230339886A1 (University of Florida Research Foundation, Incorporated, priority 2020, published 2023).
pEC50: −log10 of the molar value.

Assays:
[1] = molecular target: T1, REV-ERBα LBD (human; residues 281-614 Δ324-422) (Homo sapiens, UniProt P20393, DEL324-422); experiment: TR-FRET corepressor interaction assay (REV-ERBα LBD, FITC-SMRT peptide); type: biochemical; settings: Table 2, read-out: REVERBα agonism (EC50 class, FRET assay)
T1 construct: 6×Histag-REV-ERBα LBD (human; residues 281-614 Δ324-422); made in house; host or cells: Escherichia coli
T1 sequence (P20393 with tags, fused parts or gaps DEL324-422): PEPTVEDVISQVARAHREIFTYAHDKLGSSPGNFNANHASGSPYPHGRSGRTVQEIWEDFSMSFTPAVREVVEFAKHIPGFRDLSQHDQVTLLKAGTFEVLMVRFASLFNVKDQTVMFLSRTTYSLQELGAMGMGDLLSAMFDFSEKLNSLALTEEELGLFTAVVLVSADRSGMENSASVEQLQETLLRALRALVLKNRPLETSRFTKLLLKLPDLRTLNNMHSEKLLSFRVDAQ
T1 sequence (Q9Y618 2335-2356 partner limits assumed): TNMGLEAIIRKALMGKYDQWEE
Procedure, shortened: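 Compound serial dilutions (in DMSO, triplicate) incubated 2 h at 4 °C; Tb donor excited at 340 nm, emission read at 495 nm and FITC acceptor at 520 nm. TR-FRET ratio (520/495 nm) plotted against ligand concentration and fitted to a sigmoidal dose-response curve.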

REV-ERBβ = molecular target: T2, REV-ERBβ (Homo sapiens, UniProt Q14995); experiment: TR-FRET corepressor interaction assay (REV-ERBβ, FITC-SMRT peptide); type: biochemical; settings: Table 2, read-out: REVERBβ agonism (EC50 class, FRET assay)
T2 construct: 6×Histag-REV-ERBα LBD (human; residues 381-579); made in house; host or cells: Escherichia coli
T2 sequence (Q14995 381-579): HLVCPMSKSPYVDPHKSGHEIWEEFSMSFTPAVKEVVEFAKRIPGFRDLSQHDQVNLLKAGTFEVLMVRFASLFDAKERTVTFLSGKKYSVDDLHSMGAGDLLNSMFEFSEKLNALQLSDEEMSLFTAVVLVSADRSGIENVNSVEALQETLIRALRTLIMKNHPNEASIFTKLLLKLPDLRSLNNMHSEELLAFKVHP
Procedure: TR-FRET corepressor interaction assay. The time-resolved fluorescence resonance energy transfer (TR-FRET) assay was performed in black low-volume 384-well plates (Greiner). […] Ligand stocks were prepared via serial dilution in DMSO, added to wells in triplicate, and plates were incubated at 4° C. for 2 h and read using a BioTek Synergy Neo multimode plate reader. The Tb donor was excited at 340 nm; its fluorescence emission was monitored at 495 nm, and the acceptor FITC emission was measured at 520 nm; and the TR-FRET ratio was calculated as the signal at 520 nm divided by the signal at 495 nm. Data were plotted using GraphPad Prism as TR-FRET ratio vs. ligand concentration and fit to sigmoidal dose response curve equation.
Exemplary compounds of the present disclosure were assayed as described above to assess agonism of REV-ERBα and REV-ERBβ.

pEC50 [1] | pEC50 (REV-ERBβ) | Structure (SMILES)
5.52 to 6.30 | < 5.52 | CC(C)(C)Cc1cn(CCNS(=O)(=O)C2CC2)c2ccc(Br)cc12 [Example 298, N-(2-(5-bromo-3-neopentyl-1H-indol-1-yl)ethyl)cyclopropanesulfonamide]
> 6.30 | 5.52 to 6.30 | CC(C)(C)Cc1cn(CCNS(=O)(=O)C2CC2)c2ccc(-c3ccc(C(F)(F)F)cc3Cl)cc12 [Example 300, N-(2-(5-(2-chloro-4-(trifluoromethyl)phenyl)-3-neopentyl-1H-indol-1-yl)ethyl) cyclopropanesulfonamide]
> 6.30 | 5.52 to 6.30 | CC(C)(C)Cc1cn(CCNS(=O)(=O)C2CC2)c2ccc(-c3ccc(F)cc3C(F)(F)F)cc12 [Example 301, N-(2-(5-(4-fluoro-2-(trifluoromethyl)phenyl)-3-neopentyl-1H-indol-1-yl)ethyl) cyclopropanesulfonamide]
> 6.30 | > 6.30 | Cc1ccc2c([C@H](NS(=O)(=O)C3CC3)C(F)(F)F)cn(CC(C)C)c2c1 [Example 309, (S)—N-(2,2,2-trifluoro-1-(1-isobutyl-6-methyl-1H-indol-3-yl)ethyl)cyclopropanesulfonamide]
> 6.30 | 5.52 to 6.30 | CC(C)Cn1cc([C@H](NS(=O)(=O)C2CC2)C(F)(F)F)c2ccc(C3CC3)cc21 [Example 310, (S)—N-(1-(6-cyclopropyl-1-isobutyl-1H-indol-3-yl)-2,2,2-trifluoroethyl)cyclopropanesulfonamide]
> 6.30 | < 5.52 | CN(C)S(=O)(=O)N[C@@H](c1cn(CC(C)(C)C)c2cc(-c3ccccc3C(F)(F)F)ccc12)C(F)(F)F [Example 323, {[(1S)-1-[1-(2,2-dimethylpropyl)-6-[2-(trifluoromethyl)phenyl]-1H-indol-3-yl]-2,2,2-trifluoroethyl]sulfamoyl}dimethylamine]
> 6.30 | < 5.52 | CC(C)Cn1cc([C@H](NS(=O)(=O)N(C)C)C(F)(F)F)c2cc(F)c(C3CC3)cc21 [Example 329, {[(1S)-1-[6-cyclopropyl-5-fluoro-1-(2-methylpropyl)-1H-indol-3-yl]-2,2,2-trifluoroethyl]sulfamoyl}dimethylamine]
> 6.30 | 5.52 to 6.30 | CC(C)(C)Cn1cc([C@H](NS(=O)(=O)C2CC2)C(F)(F)F)c2cc(F)c(-c3ccccc3Cl)cc21 [Example 331, (S)—N-(1-(6-(2-chlorophenyl)-5-fluoro-1-neopentyl-1H-indol-3-yl)-2,2,2-trifluoroethyl)cyclopropanesulfonamide]
> 6.30 | < 5.52 | CC(C)Cn1cc([C@H](NS(=O)(=O)C2CC2)C(F)(F)F)c2ccc(C(C)C)cc21 [Example 333, (S)—N-(2,2,2-trifluoro-1-(1-isobutyl-6-isopropyl-1H-indol-3-yl)ethyl)cyclopropanesulfonamide]
> 6.30 | 5.52 to 6.30 | CC(C)c1ccc2c([C@H](NS(=O)(=O)N(C)C)C(F)(F)F)cn(CC(C)(C)C)c2c1 [Example 340, {[(1S)-1-[1-(2,2-dimethylpropyl)-6-(propan-2-yl)-1H-indol-3-yl]-2,2,2-trifluoroethyl]sulfamoyl}dimethylamine]

Further lines, the compound ahead of its results:

Structure (SMILES) | pEC50 [1] | pEC50 (REV-ERBβ)
CC(C)Cn1cc(CCNS(=O)(=O)N(C)C)c2ccc(-c3ccncc3)nc21 [Example 203, dimethyl({2-[1-(2-methylpropyl)-6-(pyridin-4-yl)-1H-pyrrolo[2,3-b]pyridin-3-yl]ethyl}sulfamoyl)amine] | > 6.30 | < 5.52
CC(C)(C)Cc1cn(CCNS(=O)(=O)C2CC2)c2ccc(-c3ccccc3C(F)(F)F)cc12 [Example 212, N-(2-(3-neopentyl-5-(2-(trifluoromethyl)phenyl)-1H-indol-1-yl)ethyl)cyclopropane sulfonamide] | > 6.30 | 5.52 to 6.30
CC(C)(C)Cc1cn(CCNS(=O)(=O)C2CC2)c2ccc(-c3c(Cl)cccc3Cl)cc12 [Example 214, N-(2-(5-(2,6-dichlorophenyl)-3-neopentyl-1H-indol-1-yl)ethyl)cyclopropane-sulfonamide] | > 6.30 | 5.52 to 6.30
CC(C)(C)Cc1cn(CCNS(=O)(=O)C2CC2)c2ccc(-c3cccc(F)c3C(F)(F)F)cc12 [Example 227, N-(2-(5-(3-fluoro-2-(trifluoromethyl)phenyl)-3-neopentyl-1H-indol-1-yl)ethyl) cyclopropanesulfonamide] | > 6.30 | 5.52 to 6.30
Cc1ccc2c(c1)c(CC(C)(C)C)cn2CCNS(=O)(=O)C1CC1 [Example 296, N-(2-(5-methyl-3-neopentyl-1H-indol-1-yl)ethyl)cyclopropanesulfonamide] | 5.52 to 6.30 | < 5.52
CC(C)(C)Cc1cn(CCNS(=O)(=O)C2CC2)c2ccc(-c3c(Cl)cc(F)cc3Cl)cc12 [Example 297, N-(2-(5-(2,6-dichloro-4-fluorophenyl)-3-neopentyl-1H-indol-1-yl)ethyl) cyclo-propane sulfonamide] | 5.52 to 6.30 | 5.52 to 6.30
CC(C)(C)Cc1cn(CCNS(=O)(=O)C2CC2)c2ccc(-c3ccc(C(F)(F)F)cc3C(F)(F)F)cc12 [Example 299, N-(2-(5-(2,4-bis(trifluoromethyl)phenyl)-3-neopentyl-1H-indol-1-yl)ethyl)cyclo-propanesulfonamide] | > 6.30 | 5.52 to 6.30
CC(C)Cn1cc([C@H](NS(=O)(=O)C2CC2)C(F)(F)F)c2cc(F)c(-c3ccccc3C(F)(F)F)cc21 [Example 313, (S)—N-(2,2,2-trifluoro-1-(5-fluoro-1-isobutyl-6-(2-(trifluoromethyl)phenyl)-1H-indol-3-yl)ethyl)cyclopropanesulfonamide] | > 6.30 | < 5.52
CC(C)(C)Cn1cc([C@H](NS(=O)(=O)C2CC2)C(F)(F)F)c2ccc(-c3ccccc3C(F)(F)F)cc21 [Example 322, (S)—N-(2,2,2-trifluoro-1-(1-neopentyl-6-(2-(trifluoromethyl)phenyl)-1H-indol-3-yl)ethyl)cyclopropanesulfonamide] | > 6.30 | 5.52 to 6.30
CN(C)S(=O)(=O)N[C@@H](c1cn(CC(C)(C)C)c2cc(C3CC3)c(F)cc12)C(F)(F)F [Example 328, {[(1S)-1-[6-cyclopropyl-1-(2,2-dimethylpropyl)-5-fluoro-1H-indol-3-yl]-2,2,2-trifluoroethyl]sulfamoyl}dimethylamine] | > 6.30 | < 5.52
CC(C)(C)Cn1cc([C@H](NS(=O)(=O)C2CC2)C(F)(F)F)c2cc(F)c(Br)cc21 [Example 342, (S)—N-(1-(6-bromo-5-fluoro-1-neopentyl-1H-indol-3-yl)-2,2,2-trifluoroethyl)cyclopropanesulfonamide] | > 6.30 | < 5.52
CC(C)Cc1cn(CCNS(=O)(=O)C2CC2)c2ncc(-c3ccncc3)cc12 [Example 365, N-(2-(3-isobutyl-5-(pyridin-4-yl)-1H-pyrrolo[2,3-b]pyridin-1-yl)ethyl)cyclopropanesulfonamide] | > 6.30 | < 5.52
